# Values of other authors, collected in patent US8097636B2, “Heterocyclic derivatives as modulators of ion channels” (Vertex Pharmaceuticals Incorporated, priority 2007, dated 2012).
# pIC50: −log10 of the molar value.
# Target: NaV1.3 (Homo sapiens, UniProt Q9NY46)
# Conditions: read-out: TTX IC50
# Chain of NaV1.3 (Q9NY46 whole entry, looked up): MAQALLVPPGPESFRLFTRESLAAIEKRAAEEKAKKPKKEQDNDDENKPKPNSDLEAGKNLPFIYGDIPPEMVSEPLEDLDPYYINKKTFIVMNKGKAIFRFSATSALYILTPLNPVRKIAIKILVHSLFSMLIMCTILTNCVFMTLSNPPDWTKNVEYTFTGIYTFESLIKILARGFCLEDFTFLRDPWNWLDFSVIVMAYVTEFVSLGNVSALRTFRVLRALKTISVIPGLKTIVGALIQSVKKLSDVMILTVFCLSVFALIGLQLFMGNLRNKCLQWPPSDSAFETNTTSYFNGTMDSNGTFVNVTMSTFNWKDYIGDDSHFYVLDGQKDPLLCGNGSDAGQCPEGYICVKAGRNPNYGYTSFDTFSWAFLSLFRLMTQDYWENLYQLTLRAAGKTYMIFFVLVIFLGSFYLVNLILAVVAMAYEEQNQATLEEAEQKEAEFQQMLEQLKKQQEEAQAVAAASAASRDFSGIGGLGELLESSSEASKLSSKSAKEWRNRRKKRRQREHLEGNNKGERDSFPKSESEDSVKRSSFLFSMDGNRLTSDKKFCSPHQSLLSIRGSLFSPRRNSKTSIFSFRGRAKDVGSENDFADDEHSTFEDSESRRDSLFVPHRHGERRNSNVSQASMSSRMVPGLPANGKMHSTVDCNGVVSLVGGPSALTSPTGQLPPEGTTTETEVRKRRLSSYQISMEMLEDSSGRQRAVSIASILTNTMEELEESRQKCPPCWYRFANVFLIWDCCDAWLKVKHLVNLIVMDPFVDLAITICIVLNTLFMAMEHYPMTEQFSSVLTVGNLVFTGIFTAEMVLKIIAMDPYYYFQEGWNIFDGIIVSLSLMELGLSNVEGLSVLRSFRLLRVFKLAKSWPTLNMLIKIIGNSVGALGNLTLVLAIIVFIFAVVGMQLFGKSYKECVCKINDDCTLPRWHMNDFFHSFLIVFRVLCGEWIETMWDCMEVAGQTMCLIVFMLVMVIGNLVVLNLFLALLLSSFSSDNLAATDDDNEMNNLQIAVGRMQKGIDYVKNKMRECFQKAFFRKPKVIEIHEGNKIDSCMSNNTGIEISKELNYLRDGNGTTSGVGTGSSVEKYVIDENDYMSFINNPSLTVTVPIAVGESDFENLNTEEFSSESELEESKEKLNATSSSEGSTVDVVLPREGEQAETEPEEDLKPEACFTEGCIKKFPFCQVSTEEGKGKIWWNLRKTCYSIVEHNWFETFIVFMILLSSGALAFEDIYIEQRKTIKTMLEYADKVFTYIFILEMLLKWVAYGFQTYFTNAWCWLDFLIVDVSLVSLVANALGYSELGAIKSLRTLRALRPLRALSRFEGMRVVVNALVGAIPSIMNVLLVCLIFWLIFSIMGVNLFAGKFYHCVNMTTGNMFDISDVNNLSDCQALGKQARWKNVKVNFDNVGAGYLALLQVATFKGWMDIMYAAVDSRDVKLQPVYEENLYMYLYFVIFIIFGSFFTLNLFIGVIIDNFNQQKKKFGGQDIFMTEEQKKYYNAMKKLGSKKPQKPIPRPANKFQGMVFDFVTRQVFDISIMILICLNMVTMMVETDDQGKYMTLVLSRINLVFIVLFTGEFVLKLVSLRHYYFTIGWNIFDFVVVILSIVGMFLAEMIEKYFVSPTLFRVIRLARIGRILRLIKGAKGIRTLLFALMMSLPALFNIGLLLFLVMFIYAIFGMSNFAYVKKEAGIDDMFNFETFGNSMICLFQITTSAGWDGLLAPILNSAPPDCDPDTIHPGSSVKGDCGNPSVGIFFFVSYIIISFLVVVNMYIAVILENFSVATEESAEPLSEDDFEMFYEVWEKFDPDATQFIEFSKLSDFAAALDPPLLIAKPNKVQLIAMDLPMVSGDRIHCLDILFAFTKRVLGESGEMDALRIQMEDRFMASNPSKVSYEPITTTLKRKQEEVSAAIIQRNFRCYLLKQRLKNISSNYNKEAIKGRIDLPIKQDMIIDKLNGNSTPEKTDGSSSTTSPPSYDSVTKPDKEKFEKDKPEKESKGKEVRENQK
smiles,measurement,value
"NC1=N[C@H](O)[C@H]2[C@H]3O[C@]4(O)O[C@@H]([C@@H](O)[C@@]2(N1)[C@@H]4O)[C@]3(O)CO [TTX, tetrodotoxin]",pIC50,7.82
